Source: US5380834A, “Immuno-suppressive agent” (Ishihara Sangyo Kaisha Ltd., priority 1992, dated 1995)
In brackets after ≈: the same amount, converted by molar mass.

Legend:
murine thymocytes = test: Effects on the mitogenic response by murine thymocytes (Con A stimulation, 3H-TdR uptake); type: cell-based, BALB/c murine; settings: Mus musculus, Thymocyte; BALB/c thymocytes, Con A 5 μg/ml, 48 hours, 3H-TdR uptake; read-out: IC50 value, a (mitogenic response of murine thymocytes)
Protocol: Using BALB/c murine thymocytes, the effect of the compound of the formula (I) on the mitogenic response of lymphocytes to the stimulation by concanavalin A (hereinafter referred to simply as Con A, Product No. L-1000, manufactured by Vector Laboratories) was studied. Namely, 4×10^5 murine thymocytes were cultured for 48 hours on a microplate with 96 wells in a RPMI1640 solution containing 10% of a fetal bovine serum (hereinafter referred to simply as a 10% FCS-RPMI solution) together with Con A (5 μg/ml) and the compound of the formula (I) (in an incubator, 5% CO2, at 37° C.). Then, 0.5 μCi of ^3 H-thymidine (hereinafter referred to simply as ^3 H-TdR) was added thereto, and the mixture was further cultured for 4 hours. Then, cells were collected by a cell harvester, and the radioactivity (dpm) of ^3 H-TdR uptaken into cells was measured. Such measured amounts of ^3 H-TdR uptaken into the cells were used as indices of the mitogenic response of the murine thymocytes, and the radioactivity at each concentration (from 0.001 to 1,000 μg/ml) of the compound of the formula (I) was compared with the control value treated solely by Con A, to calculate IC50 value. In these Tables 12 and 13, the results of murine thymocytes are shown by (a).
For the basic procedure of this test, reference was made to Selected methods in cellular immunology, p. 144-146 (translated by Katsuyuki Imai et al., published by Rikogakusha, (1982)).

[1] = system: murine mixed lymphocyte reaction (spleen cells of BALB/c and C57BL/6 mice); test: Effects on the murine mixed lymphocyte reaction (3H-TdR uptake); type: cell-based; settings: Mus musculus, BALB/c + C57BL/6 spleen cells, 48 hours, read-out: IC50 value, b (murine mixed lymphocyte reaction)
Protocol: Using spleen cells of BALB/c and C57BL/6 mice, the effect of the compound of the formula (I) on the murine mixed lymphocyte reaction in both sides, was studied. Namely, spleen cells of both types of mice were mixed in an equal amount of 5×10^5 cells each, and the mixed cells were cultured together with the compound of the formula (I) for 48 hours on a microplate with 96 wells by a 10% FCS-RPMI solution (in an incubator, 5% CO2, at 37° C.). Then, 0.5 μCi of ^3 H-TdR was added thereto, and the mixture was further cultured for from 16 to 18 hours. Then, cells were collected by a cell harvester, and the radioactivity (dpm) of ^3 H-TdR uptaken into the cells, was measured. Such measured amounts of ^3 H-TdR uptaken into the cells were used as indices for the mixed lymphocyte reaction, and the radioactivity at each concentration (from 0.001 to 1,000 μg/ml) of the compound of the formula (I) was compared with the non-treated control value, to calculate the Ic50 value.
For the basic procedure for this test, reference was made to Selected methods in cellular immunology, p. 147-149 (translated by Katsuyuki Imai et al., published by Rikogakusha, (1982)).

murine bone mallow cells = test: Effects on the murine bone mallow cells (proliferation, 3H-TdR uptake); type: cell-based, BALB/c mouse; settings: Mus musculus, bone marrow cells; 20% L929 culture supernatant, 48 hours, 3H-TdR uptake; Tables 12-15; read-out: IC50 value, c (murine bone mallow cells)
Protocol: Bone mallow cells were removed from the femur of a BALB/c mouse and suspended in a 10% FCS-RPMI solution. The cell suspension was put into a plastic Petri dish having a diameter of 10 cm and left to stand still (in an incubator, 5% CO2, at 37° C.). Two hours later, only floating cells were recovered, and adhesion cells were removed. 1×10^5 floating cells were cultured for 48 hours together with a 20% culture supernatant of L929 fibroblastoma and the compound of the formula (I) on a microplate with 96 wells by a 10% FCS-RPMI solution (in an incubator, 5% CO2, at 37° C.). Then, 0.5 μCi of ^3 H-TdR was added thereto, and the mixture was further cultured for 4 hours. Then, cells were collected by a cell harvester, and the radioactivity (dpm) of ^3 H-TdR uptaken into the cells, was measured. Such measured amounts of ^3 H-TdR uptaken into the cells were used as indices for the proliferation of bone mallow cells, and the radioactivity at each concentration (from 0.001 to 1,000 μg/ml) of the compound of the formula (I) was compared with the control value where the L929 culture supernatant was added alone, to calculate the IC50 value. In these Tables 12 and 13, the results of the bone mallow cells are shown by (c).
For the basic procedure of this test, reference was made to Seikagakujikken Koza compiled by Japan Biochemistry Association, Vol. 5, p. 266-270 (published by Tokyo Kagaku Dojin in 1986).

[2] = system: IgGl antibody production from murine spleen B cells; test: Effects on the IgGl antibody production from murine spleen cells (LPS + IL4); type: cell-based, BALB/c mouse; settings: Mus musculus, B-cell, 168 h; spleen B cells, LPS 10 μg/ml, IL4 100 U/ml, 7 days, enzyme-immunoassay; read-out: IC50 value, IgGl antibody production
Protocol: (§1) Using murine spleen B cells, the effects of the compound of the formula (I) on the IgGl, IgM and IgE antibody production induced by the stimulation by LPS (lipopolysaccharide; Product No. 520.02051, manufactured by Wako Junyaku) and IL4 (interleukin 4), were studied. Namely, spleen cells of a BALB/c mouse were treated with a murine anti-Thy-1 antibody (obtained from Chiba University) and a rabbit complement (Product No. 3051, manufactured by cedarlane) to remove T cells, and 3×10^5 spleen B cells were cultured for 7 days together with 10 μg/ml of LPS, 100 U/ml of mouse-recombinant IL4 (Product No. MIL-4C, manufactured by Genzyme) and each concentration (from […]) of the compound of the formula (I) on a microplate with 96 wells by a 10% FCS-RPMI solution (in an incubator, 5% CO2, at 37° C.).
(§2) For the basic procedure of this test, reference was made to The Journal of Immunology, Vol. 136, p. 4538, (1986).
(§3) The amount of each antibody in the cell culture supernatant hereby obtained, was measured by the following enzyme-immunoassay. Firstly, on a microplate with 96 wells, 1 μg/ml of a rabbit anti-mouse IgGl antibody (Product No. 36243, manufactured by Cappel), 1 μg/ml of a goat anti-mouse IgM antibody (Product No. 0611-0201, manufactured by Cappel) or 10 μg/ml of a rat anti-mouse IgE monoclonal antibody (Product No. LO-ME-2, manufactured by Experimental Immunology) was coated (50 μl/well, at room temperature for 60 minutes), and then a nonspecific bond was blocked by a 0.1% bovine serum albumin-containing 10 mM sodium phosphate buffer (pH 7.2) (at room temperature for 60 minutes). Then, the above-mentioned cell culture supernatant or its diluted solution was added in an amount of 50 μl/well and reacted at room temperature for 60 minutes. Further, an alkaline phosphatase-labeled rabbit anti-mouse IgGl antibody (Product No. 61-0122, manufactured by Zymet) diluted 1,000 times, an alkaline phosphatase-labeled rabbit anti-mouse IgM antibody (Product No. 61-6822, manufactured by Zymet) diluted 2,000 times, or an alkaline phosphatase-labeled goat anti-mouse IgE antibody (Product No. PA-284, manufactured by Binding Site) diluted 500 times was added in an amount of 50 μl/well and reacted at room temperature for 60 minutes. 100 μl/well of a 10% diethanol amine buffer solution (pH 9.8) containing p-nitrophenyl phosphate as an enzyme substrate, was reacted, and the absorbance at 405 nm was measured. The amount of each antibody was calculated from the calibration curve of each standard antibody, and the IC50 value of the compound of the formula (I) on the antibody production was calculated using as the control value a value obtained in the absence of the compound of the formula (I).

[3] = system: IgM antibody production from murine spleen B cells; test: Effects on the IgM antibody production from murine spleen cells (LPS + IL4); type: cell-based, BALB/c mouse; settings: Mus musculus, B-cell, 168 h; spleen B cells, LPS 10 μg/ml, IL4 100 U/ml, 7 days, enzyme-immunoassay; read-out: IC50 value, IgM antibody production
Protocol: as §1, §2, §3

[4] = system: IgE antibody production from murine spleen B cells; test: Effects on the IgE antibody production from murine spleen cells (LPS + IL4); type: cell-based, BALB/c mouse; settings: Mus musculus, B-cell, 168 h; spleen B cells, LPS 10 μg/ml, IL4 100 U/ml, 7 days, enzyme-immunoassay; read-out: IC50 value, IgE antibody production
Protocol: as §1, §2, §3

IC50 (murine thymocytes)	IC50 [1]	IC50 [2]	IC50 [3]	IC50 [4]	Compound	IC50 (murine bone mallow cells)
120 µg/mL (≈ 550 µM)	> 1000 µg/mL	34 µg/mL	35 µg/mL	41 µg/mL	C1=C[C@H]2CO[C@H](O2)[C@H]1OCc1ccccc1 [Compound 48]	430 µg/mL (≈ 1970 µM)
110 µg/mL (≈ 390 µM)	560 µg/mL	24 µg/mL	0.11 µg/mL	28 µg/mL	CCCCCCCCCC(=O)O[C@H]1C=C[C@H]2CO[C@@H]1O2 [Compound 12, 1,6-anhydro-2-O-decanoyl-3,4-dideoxy-β-D-threo-hex-3-enopyranose]	560 µg/mL (≈ 1980 µM)
52 µg/mL (≈ 211 µM)	180 µg/mL	< 0.001 µg/mL	< 0.001 µg/mL	< 0.001 µg/mL	Cc1ccccc1C(=O)O[C@H]1C=C[C@H]2CO[C@@H]1O2 [Compound 50]	380 µg/mL (≈ 1540 µM)
110 µg/mL (≈ 390 µM)	22 µg/mL	0.25 µg/mL	0.35 µg/mL	0.32 µg/mL	Cc1ccc(S(=O)(=O)O[C@H]2C=C[C@H]3CO[C@@H]2O3)cc1 [Compound 46, 1,6-anhydro-3,4-dideoxy-2-O-(p-toluene)sulfonyl-β-D-threo-hex-3-enopyranose]	190 µg/mL (≈ 673 µM)
